Like-named read-outs stand apart in the source and are kept apart here.
Key:
Type in all cases: cell-based
[1] = system: Aspergillus niger (A. niger—ATCC 16404); assay: Synergy test, microtiter plate high resolution MIC assay, mold; conditions: for SI (synergy index, Qa/QA+Qb/QB): <1 synergism, 1 additivity, >1 antagonism; for MIC: Aspergillus niger, read-out: MIC of the microbicide acting alone (QA or QB)
Description: (§1) When the sum of Qa/QA and Qb/QB is greater than one, antagonism is indicated. […] The lower the SI, the greater the synergy shown by that particular mixture. The minimum inhibitory concentration (MIC) of a microbicide is the lowest concentration tested under a specific set of conditions that prevents the growth of added microorganisms.
(§2) Synergy tests were conducted using standard microtiter plate assays with media designed for optimal growth of the test microorganism. Minimal salt medium supplemented with 0.2% glucose and 0.1% yeast extract (M9GY medium) was used for testing bacteria; Potato Dextrose Broth (PDB medium) was used for testing yeast and mold. In this method, a wide range of combinations of microbicides was tested by conducting high resolution MIC assays in the presence of various concentrations of MI. High resolution MICs were determined by adding varying amounts of microbicide to one column of a microtitre plate and doing subsequent ten-fold dilutions using an automated liquid handling system to obtain a series of endpoints ranging from 2 ppm to 10,000 ppm active ingredient. […] The bacteria were used at a concentration of about 5×10^6 bacteria per mL and the yeast and mold at 5×10^5 fungi per mL. These microorganisms are representative of natural contaminants in many consumer and industrial applications. […] (yeast and mold) or 30° C. (bacteria).
(§3) In each test, First Component (A) was MI and the Second Component (B) was the other commercial microbicide.

[2] = system: Staphylococcus aureus (S. aureus—ATCC #6538); assay: Synergy test, microtiter plate high resolution MIC assay, Gram (+) bacteria; conditions: for SI (synergy index, Qa/QA+Qb/QB): <1 synergism, 1 additivity, >1 antagonism; for MIC: Staphylococcus aureus
Description: as §1, §2, §3

[3] = system: Candida albicans (C. albicans—ATCC 10231); assay: Synergy test, microtiter plate high resolution MIC assay, yeast; conditions: for SI (synergy index, Qa/QA+Qb/QB): <1 synergism, 1 additivity, >1 antagonism; for MIC: Candida albicans, read-out: MIC of the microbicide acting alone (QA or QB)
Description: as §1, §2, §3

[4] = system: Pseudomonas aeruginosa (P. aeruginosa—ATCC #9027); assay: Synergy test, microtiter plate high resolution MIC assay, Gram (−) bacteria; conditions: for SI (synergy index, Qa/QA+Qb/QB): <1 synergism, 1 additivity, >1 antagonism; for MIC: Pseudomonas aeruginosa, read-out: MIC of the microbicide acting alone (QA or QB)
Description: as §1, §2, §3

[5] = ATCC16404, 168 h, A. niger, 1 week, PDB medium, 25° C.
[6] = ATCC6538, S. aureus, 72 hours, M9GY medium, 30° C., read-out: MIC of the microbicide acting alone (QA or QB)
[7] = ATCC10231, C. albicans, 72 hours, PDB medium, 25° C.
[8] = ATCC9027, P. aeruginosa, 24 hours, M9GY medium, 30° C.
[9] = ATCC6538, 72 h, read-out: MIC of the microbicide acting alone (QA or QB), S. aureus, 72 hours, M9GY medium, 30° C.
[10] = ATCC6538, S. aureus, 24 hours, M9GY medium, 30° C., read-out: MIC of the microbicide acting alone (QA or QB)
[11] = ATCC9027, P. aeruginosa, 48 hours, M9GY medium, 30° C.

Compound	SI (synergy index, Qa/QA+Qb/QB) ([1]; A. niger, 1 week)	MIC [1, 5] [µg/mL]	SI (synergy index, Qa/QA+Qb/QB) ([2]; S. aureus, 72 hours)	MIC [2, 6] [µg/mL]	SI (synergy index, Qa/QA+Qb/QB) ([3]; C. albicans, 72 hours)	MIC [3, 7] [µg/mL]	SI (synergy index, Qa/QA+Qb/QB) ([4]; P. aeruginosa, 24 hours)	MIC [4, 8] [µg/mL]	SI (synergy index, Qa/QA+Qb/QB) ([3]; C. albicans, 48 hours)	SI (synergy index, Qa/QA+Qb/QB) ([4]; P. aeruginosa, 72 hours)	also measured
N#CCCC(Br)(C#N)CBr (stereo not shown) [1,2-dibromo-2,4-dicyanobutane]	1.00	100	1.00	1000	1.00	500	1.00	800			
CC1(C)C(=O)N(CO)C(=O)N1CO [1,3-dimethylol-5,5-dimethylhydantoin]	1.00	3000	1.00	200	1.00	3000	1.00	300			
Cn1sccc1=O [2-methyl-3-isothiazolone]	1.00		1.00		1.00		1.00		1.00	1.00	SI (synergy index, Qa/QA+Qb/QB) ([1]; A. niger, 72 hours): 1.00; SI (synergy index, Qa/QA+Qb/QB) ([1]; A. niger, 96 hours): 1.00; MIC ([1]; ATCC16404, 72 h): 300 µg/mL; MIC ([1]; ATCC16404, 96 h): 300 µg/mL; MIC ([1]; ATCC16404, 168 h): 300 µg/mL; SI (synergy index, Qa/QA+Qb/QB) ([2]; S. aureus, 24 hours): 1.00; MIC ([2]; ATCC6538, 24 h, read-out: MIC of the microbicide acting alone (QA or QB), S. aureus, 24 hours, M9GY medium, 30° C.): 40 µg/mL; MIC [2, 9]: 60 µg/mL; MIC ([3]; ATCC10231, 48 h): 200 µg/mL; MIC ([3]; ATCC10231, 72 h): 200 µg/mL; SI (synergy index, Qa/QA+Qb/QB) ([4]; P. aeruginosa, 48 hours): 1.00; MIC ([4]; ATCC9027, 24 h): 15 µg/mL; MIC ([4]; ATCC9027, 48 h): 20 µg/mL; MIC ([4]; ATCC9027, 72 h): 20 µg/mL
O=C(O)c1ccccc1 [benzoic acid]	1.00		1.00						1.00	1.00	MIC ([1]; ATCC16404, 168 h): 10000 µg/mL; MIC [2, 9]: 6000 µg/mL; MIC ([3]; ATCC10231, 48 h): 5000 µg/mL; MIC ([4]; ATCC9027, 72 h): 6000 µg/mL
OCc1ccccc1 [benzyl alcohol]			1.00	8000			1.00	6000	1.00		SI (synergy index, Qa/QA+Qb/QB) ([1]; A. niger, 72 hours): 1.00; MIC ([1]; ATCC16404, A. niger, 72 hours, PDB medium, 25° C.): 8000 µg/mL; MIC ([3]; ATCC10231, C. albicans, 48 hours, PDB medium, 25° C.): 6000 µg/mL
O=C(O)CC(O)(CC(=O)O)C(=O)O [citric acid]		10000				10000					MIC [2, 10]: 4000 µg/mL; MIC [4, 11]: 6000 µg/mL
CC(C)(C)C(=O)C(Oc1ccc(Cl)cc1)n1ccnc1 (stereo not shown) [climbazole]					1.00	300					SI (synergy index, Qa/QA+Qb/QB) ([2]; S. aureus, 24 hours): 1.00; MIC [2, 10]: 2000 µg/mL
C/C=C/C=C/C(=O)O [sorbic acid]			1.00	10000	1.00	400					SI (synergy index, Qa/QA+Qb/QB) ([1]; A. niger, 96 hours): 1.00; MIC ([1]; ATCC16404, A. niger, 96 hours, PDB medium, 25° C.): 4000 µg/mL; SI (synergy index, Qa/QA+Qb/QB) ([4]; P. aeruginosa, 48 hours): 1.00; MIC [4, 11]: 10000 µg/mL
zinc pyrithione	1.00		1.00						1.00	1.00	MIC of the microbicide acting alone (QA or QB) ([1]; A. niger, 1 week, PDB medium, 25° C.): 80 ppm; MIC of the microbicide acting alone (QA or QB) ([2]; S. aureus, 72 hours, M9GY medium, 30° C.): 20 ppm; MIC of the microbicide acting alone (QA or QB) ([3]; C. albicans, 48 hours, PDB medium, 25° C.): 80 ppm; MIC of the microbicide acting alone (QA or QB) ([4]; P. aeruginosa, 72 hours, M9GY medium, 30° C.): 200 ppm

From patent US9034905B2, “Synergistic microbicidal combinations” (Rohm and Haas Company, priority 2003, dated 2015)
